Data published in paper PMC10175918 (Communications Biology, 2023).
Where two headings read alike, the source gives them in different places.

Key:
Assay in all cases: TGFα-shedding assay-based GPCR screening with chimeric Gα subunit proteins
Type in all cases: cell-based
348 GPCRs [1] = molecular target: T1, 348 GPCRs (Homo sapiens, UniProt Q9ULV1); conditions: 10µM, Favipiravir 100μM
T1 construct: expressed in transfected cells; host or cells: HEK293A
T1 sequence (Q9ULV1 37-537): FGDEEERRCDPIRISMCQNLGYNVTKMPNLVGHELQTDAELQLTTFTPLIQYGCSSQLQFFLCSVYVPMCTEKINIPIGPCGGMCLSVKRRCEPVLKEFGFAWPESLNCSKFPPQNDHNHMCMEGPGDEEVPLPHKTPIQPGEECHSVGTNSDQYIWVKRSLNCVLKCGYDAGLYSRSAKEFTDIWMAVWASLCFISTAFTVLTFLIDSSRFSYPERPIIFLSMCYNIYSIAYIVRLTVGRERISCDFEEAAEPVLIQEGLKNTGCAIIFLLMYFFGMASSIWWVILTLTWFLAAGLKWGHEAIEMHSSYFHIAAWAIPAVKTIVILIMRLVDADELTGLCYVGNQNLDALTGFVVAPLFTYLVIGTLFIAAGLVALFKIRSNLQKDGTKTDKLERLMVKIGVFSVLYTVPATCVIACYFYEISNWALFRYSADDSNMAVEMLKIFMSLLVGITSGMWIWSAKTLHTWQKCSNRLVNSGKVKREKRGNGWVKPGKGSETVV

348 GPCRs [2] = molecular target: T2, 348 GPCRs (Homo sapiens, UniProt Q9NZH0); conditions: 10µM, Favipiravir 100μM
T2 construct: expressed in transfected cells; host or cells: HEK293A

348 GPCRs [3] = molecular target: T3, 348 GPCRs (Homo sapiens, UniProt Q8IZF7)
T3 construct: expressed in transfected cells; host or cells: HEK293A
T3 sequence (Q8IZF7 1-708): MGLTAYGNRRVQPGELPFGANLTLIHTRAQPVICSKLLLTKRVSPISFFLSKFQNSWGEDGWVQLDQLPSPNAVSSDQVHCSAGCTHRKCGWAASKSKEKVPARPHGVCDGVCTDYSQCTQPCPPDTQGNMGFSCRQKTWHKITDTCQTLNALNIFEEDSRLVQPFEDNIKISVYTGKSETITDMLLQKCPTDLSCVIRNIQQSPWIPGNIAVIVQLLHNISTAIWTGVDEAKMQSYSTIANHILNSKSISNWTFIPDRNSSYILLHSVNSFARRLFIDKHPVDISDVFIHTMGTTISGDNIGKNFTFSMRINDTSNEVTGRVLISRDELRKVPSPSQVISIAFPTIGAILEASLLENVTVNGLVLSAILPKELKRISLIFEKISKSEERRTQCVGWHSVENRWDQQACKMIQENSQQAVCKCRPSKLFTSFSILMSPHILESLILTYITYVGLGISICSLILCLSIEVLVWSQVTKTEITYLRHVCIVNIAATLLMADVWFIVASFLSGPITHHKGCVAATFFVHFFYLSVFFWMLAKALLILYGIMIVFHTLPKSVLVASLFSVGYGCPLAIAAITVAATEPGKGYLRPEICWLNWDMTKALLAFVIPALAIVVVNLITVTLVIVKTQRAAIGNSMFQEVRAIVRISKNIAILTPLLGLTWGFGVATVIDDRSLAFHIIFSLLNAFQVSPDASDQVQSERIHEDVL

348 GPCRs [4] = molecular target: T4, 348 GPCRs (Homo sapiens, UniProt Q9Y271)
T4 construct: expressed in transfected cells; host or cells: HEK293A
T4 sequence (Q9Y271 1-337): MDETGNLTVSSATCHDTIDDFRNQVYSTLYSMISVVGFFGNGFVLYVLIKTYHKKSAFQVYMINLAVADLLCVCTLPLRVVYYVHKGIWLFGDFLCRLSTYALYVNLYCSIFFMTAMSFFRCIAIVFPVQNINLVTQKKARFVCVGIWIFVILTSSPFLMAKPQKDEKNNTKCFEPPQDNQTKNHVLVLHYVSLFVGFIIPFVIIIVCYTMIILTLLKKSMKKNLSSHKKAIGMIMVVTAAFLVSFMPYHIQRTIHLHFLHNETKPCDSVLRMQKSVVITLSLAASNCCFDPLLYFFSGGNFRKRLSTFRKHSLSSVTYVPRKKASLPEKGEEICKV

348 GPCRs [5] = molecular target: T5, 348 GPCRs (Homo sapiens, UniProt Q9GZQ6); conditions: 10µM, Favipiravir 100μM
T5 construct: expressed in transfected cells; host or cells: HEK293A

348 GPCRs [6] = molecular target: T6, 348 GPCRs (Homo sapiens, UniProt P21452); conditions: 10µM, Favipiravir 100μM
T6 construct: expressed in transfected cells; host or cells: HEK293A
T6 sequence (P21452 1-398): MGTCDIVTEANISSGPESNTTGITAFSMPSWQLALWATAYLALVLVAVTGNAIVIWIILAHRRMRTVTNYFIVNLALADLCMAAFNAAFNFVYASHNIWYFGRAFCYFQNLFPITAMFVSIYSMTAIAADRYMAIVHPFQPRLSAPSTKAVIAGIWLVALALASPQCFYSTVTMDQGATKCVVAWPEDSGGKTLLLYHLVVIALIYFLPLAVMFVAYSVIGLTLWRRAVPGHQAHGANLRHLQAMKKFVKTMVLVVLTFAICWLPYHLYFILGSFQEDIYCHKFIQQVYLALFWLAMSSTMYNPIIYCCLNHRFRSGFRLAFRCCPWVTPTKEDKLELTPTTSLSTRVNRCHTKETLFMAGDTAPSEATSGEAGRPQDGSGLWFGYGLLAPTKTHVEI

[7] = FZD4 (frizzled family receptor 4), read-out: % GPCR activation compared to TPA
[8] = GPRC5B (G protein-coupled receptor class C group 5 member B), read-out: % GPCR activation compared to TPA
[9] = GPCR GPR111 (G-protein-coupled receptor 111 (ADGRF2)), read-out: % GPCR activation compared to TPA
[10] = GPCR CysLT1 (cysteinyl leukotriene receptor 1), read-out: % GPCR activation compared to TPA
[11] = NPFFR1 (neuropeptide FF receptor 1), read-out: % GPCR activation compared to TPA
[12] = NK2 (tachykinin receptor 2), read-out: % GPCR activation compared to TPA
[13] = read-out: % GPCR activation compared to TPA, FZD4 (frizzled family receptor 4)
[14] = read-out: % GPCR activation compared to TPA, GPRC5B (G protein-coupled receptor class C group 5 member B)
[15] = read-out: % GPCR activation compared to TPA, GPCR GPR111 (G-protein-coupled receptor 111 (ADGRF2))
[16] = read-out: % GPCR activation compared to TPA, GPCR CysLT1 (cysteinyl leukotriene receptor 1)
[17] = read-out: % GPCR activation compared to TPA, NPFFR1 (neuropeptide FF receptor 1)
[18] = read-out: % GPCR activation compared to TPA, NK2 (tachykinin receptor 2)

T2 sequence (Q9NZH0 29-403): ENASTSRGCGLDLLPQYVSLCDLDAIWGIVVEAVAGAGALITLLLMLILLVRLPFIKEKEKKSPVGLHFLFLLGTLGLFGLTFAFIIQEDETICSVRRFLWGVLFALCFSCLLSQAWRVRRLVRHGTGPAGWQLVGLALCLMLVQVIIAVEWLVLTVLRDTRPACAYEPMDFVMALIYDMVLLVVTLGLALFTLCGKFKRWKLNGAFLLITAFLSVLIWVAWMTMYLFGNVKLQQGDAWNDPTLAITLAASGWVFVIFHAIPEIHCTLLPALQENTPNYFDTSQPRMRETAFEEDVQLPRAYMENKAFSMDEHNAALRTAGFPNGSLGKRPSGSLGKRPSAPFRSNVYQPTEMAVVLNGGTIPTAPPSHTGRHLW
T5 sequence (Q9GZQ6 whole entry): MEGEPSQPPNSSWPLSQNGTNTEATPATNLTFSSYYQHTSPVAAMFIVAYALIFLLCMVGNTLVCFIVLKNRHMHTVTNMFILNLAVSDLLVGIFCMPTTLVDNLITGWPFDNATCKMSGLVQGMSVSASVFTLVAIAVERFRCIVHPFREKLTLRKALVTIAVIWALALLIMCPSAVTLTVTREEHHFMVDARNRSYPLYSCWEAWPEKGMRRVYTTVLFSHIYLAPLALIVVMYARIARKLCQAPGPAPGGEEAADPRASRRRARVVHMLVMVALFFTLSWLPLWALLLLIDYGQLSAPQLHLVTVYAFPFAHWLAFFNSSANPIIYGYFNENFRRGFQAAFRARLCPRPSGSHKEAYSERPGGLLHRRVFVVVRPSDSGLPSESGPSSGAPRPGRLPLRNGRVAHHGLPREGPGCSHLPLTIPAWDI

Structure (SMILES)	activation at 100 µM (348 GPCRs [1]; [7]) [%]	activation at 100 µM (348 GPCRs [2]; [8]) [%]	activation at 10 µM (348 GPCRs [3]; [9]) [%]	activation at 10 µM (348 GPCRs [4]; [10]) [%]	activation at 10 µM (348 GPCRs [5]; [11]) [%]	activation at 10 µM (348 GPCRs [6]; [12]) [%]	activation at 100 µM (348 GPCRs [3]; GPCR GPR111 (G-protein-coupled receptor 111 (ADGRF2)), 100μM, read-out: % GPCR activation compared to TPA) [%]	activation at 100 µM (348 GPCRs [4]; GPCR CysLT1 (cysteinyl leukotriene receptor 1), 100μM, read-out: % GPCR activation compared to TPA) [%]	activation at 100 µM (348 GPCRs [1]; [13]) [%]	activation at 100 µM (348 GPCRs [2]; [14]) [%]	activation at 10 µM (348 GPCRs [3]; [15]) [%]	activation at 10 µM (348 GPCRs [4]; [16]) [%]	activation at 10 µM (348 GPCRs [5]; [17]) [%]	activation at 10 µM (348 GPCRs [6]; [18]) [%]
N#C[C@@]1(c2ccc3c(N)ncnn23)O[C@H](CO)[C@@H](O)[C@H]1O [GS441524]	4.3	4.38	-2.52	-1.14	1.07	0.00909								
CCC(CC)COC(=O)[C@H](C)N[P@](=O)(OC[C@H]1O[C@@](C#N)(c2ccc3c(N)ncnn23)[C@H](O)[C@@H]1O)Oc1ccccc1 [remdesivir]									3.99	6.88	-1.09	0.442	-0.49	1.32
CC(C)OC(=O)[C@H](C)N[P@](=O)(OC[C@H]1O[C@@H](n2ccc(=O)[nH]c2=O)[C@](C)(F)[C@@H]1O)Oc1ccccc1 [sofosbuvir]									-0.222	-12.5	-0.382	-1.58	-1.9	-3.34

Further lines, with some results ahead:

activation at 100 µM (348 GPCRs [1]; [7]) [%]	activation at 100 µM (348 GPCRs [2]; [8]) [%]	activation at 10 µM (348 GPCRs [3]; [9]) [%]	activation at 10 µM (348 GPCRs [4]; [10]) [%]	activation at 10 µM (348 GPCRs [5]; [11]) [%]	activation at 10 µM (348 GPCRs [6]; [12]) [%]	activation at 100 µM (348 GPCRs [3]; GPCR GPR111 (G-protein-coupled receptor 111 (ADGRF2)), 100μM, read-out: % GPCR activation compared to TPA) [%]	activation at 100 µM (348 GPCRs [4]; GPCR CysLT1 (cysteinyl leukotriene receptor 1), 100μM, read-out: % GPCR activation compared to TPA) [%]	Structure (SMILES)	activation at 100 µM (348 GPCRs [1]; [13]) [%]	activation at 100 µM (348 GPCRs [2]; [14]) [%]	activation at 10 µM (348 GPCRs [3]; [15]) [%]	activation at 10 µM (348 GPCRs [4]; [16]) [%]	activation at 10 µM (348 GPCRs [5]; [17]) [%]	activation at 10 µM (348 GPCRs [6]; [18]) [%]
0.755	7.41			-3.31	1.15	-1.94	-0.478	NC(=O)c1nc(F)cnc1O [favipiravir, 6-fluoro-3-hydroxy-2-pyrazinecarboxamide]						
1.08	-3.43	0.307	-1.72	-0.462	-2.23			CC(C)C(=O)OC[C@H]1O[C@@H](n2ccc(NO)nc2=O)[C@H](O)[C@@H]1O [molnupiravir]						
